Results: paper PMC3526353 (The Journal of Experimental Medicine, 2012)
pKd: −log10 of the molar value.

Target: receptor for advanced glycation end products (RAGE) (Homo sapiens, UniProt Q15109)
Test: SPR
Assay type: binding

Sequence of receptor for advanced glycation end products (RAGE) (Q15109 23-342 limits assumed): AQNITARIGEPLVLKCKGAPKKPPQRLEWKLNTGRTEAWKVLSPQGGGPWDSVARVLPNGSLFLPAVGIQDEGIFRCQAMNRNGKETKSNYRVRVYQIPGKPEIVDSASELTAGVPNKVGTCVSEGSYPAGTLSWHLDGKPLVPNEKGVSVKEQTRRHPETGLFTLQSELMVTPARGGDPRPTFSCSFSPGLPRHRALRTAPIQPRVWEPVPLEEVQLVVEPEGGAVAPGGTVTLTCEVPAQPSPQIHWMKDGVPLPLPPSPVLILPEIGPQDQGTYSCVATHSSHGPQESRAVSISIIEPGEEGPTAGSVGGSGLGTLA

`CCCCCCCC/C=C\CCCCCCCC(=O)OC[C@@H](O)COP(=O)(O)O` [LPA, 1-oleoyl-2-hydroxy-sn-glycero-3-phosphate] gave a pKd of 7.07.
